The values below come from patent publication US9920049B2 (priority 2014, dated 2018).

The experiment deals with HBsAg. Put plainly: HBsAg assay (CLIA of secreted HBsAg in HepG2.2.15 culture supernatant). Type of experiment: cell-based, HBV. The note with it: Hepatitis B virus. Here is the method:
HepG2.2.15 cells (Acs et al. Proc Natl Acad Sci USA, 84, (1987), 4641-4), a constitutively HBV-expressing cell line were cultured in DMEM+Glutamax-I medium (Invitrogen, Carlsbad, Calif., USA), supplemented with 10% fetal bovine serum (Invitrogen) and G418 (Invitrogen) at a final concentration of 200 mg/L and maintained in 5% CO2 at 37° C.
HepG2.2.15 cells were seeded in duplicate into white, 96-well plates at 1.5×10^4 cells/well. The cells were treated with a three-fold serial dilution series of the compounds in DMSO. The final DMSO concentration in all wells was 1% and DMSO was used as no drug control.
The HBsAg chemiluminescence immunoassay (CLIA) kit (Autobio Diagnostics Co., Zhengzhou, China, Catalog number: CL0310-2) was used to measure the levels of secreted HBV antigens semi-quantitatively. For the detection 50 μL/well culture supernatant was used and HBsAg was quantified using HBsAg chemiluminescence immunoassay (CLIA) kit (Autobio Diagnostics Co., Zhengzhou, China, Catalog number: CL0310-2), 50 μl of the supernatant was transferred to the CLIA assay plate and 50 μL of enzyme conjugate reagent was added into each well. The plates were sealed and gently agitated for 1 hour at room temperature. The supernatant-enzyme-mixture was discarded and wells were washed 6 times with 300 μL of PBS. The residual liquid was removed by plating the CLIA plate right side down on absorbent tissue paper. 25 μL of substrates A and B were added to each well. Luminance was measured using a luminometer (Mithras LB 940 Multimode Microplate Reader) after 10 minutes incubation. Dose-response curves were generated and the IC50 value was extrapolated by using the E-WorkBook Suite (ID Business Solutions Ltd., Guildford, UK).
The compounds of the present invention were tested for their capacity to inhibit HBsAg as described herein.

What is called IC50 is the concentration that gives 50% inhibition. Low readings indicate inhibition by little substance, high ones a need for much substance. In the case of `CCC1Cc2cc(OCC3CC3)c(OC)cc2-c2cc(=O)c(C(=O)NC(C)COC)cn21` (stereo not drawn) [Example 19, 9-(cyclopropylmethoxy)-6-ethyl-10-methoxy-N-(2-methoxy-1-methyl-ethyl)-2-oxo-6,7-dihydrobenzo[a]quinolizine-3-carboxamide], the IC50 is 8 µM.

For the compound `CCC1Cc2cc(OCc3ccccc3)c(OC)cc2-c2cc(=O)c(C(=O)NC(C)COC)cn21` (stereo not drawn) [Example 3, 9-benzyloxy-6-ethyl-10-methoxy-N-(2-methoxy-1-methyl-ethyl)-2-oxo-6,7-dihydrobenzo[a]quinolizine-3-carboxamide], the half-inhibitory concentration (IC50) was 31 µM.

As to `COCCCOc1cc2c(cc1OC)-c1cc(=O)c(C(=O)Nc3nnn[nH]3)cn1C(C(C)(C)C)C2` (stereo not drawn) [Example 32, 6-tert-butyl-10-methoxy-9-(3-methoxypropoxy)-2-oxo-N-(1H-tetrazol-5-yl)-6,7-dihydrobenzo[a]quinolizine-3-carboxamide], the IC50 worked out at 0.38 µM. This IC50 is about 82-fold lower than that of the compound before.

In turn, `CCC1Cc2cc(OCc3ccccc3)c(OC)cc2-c2cc(=O)c(C(=O)NO)cn21` (stereo not drawn) [Example 10, 9-benzyloxy-6-ethyl-10-methoxy-2-oxo-6,7-dihydrobenzo[a]quinolizine-3-carbohydroxamic Acid] displayed an IC50 of 20.3 µM.

Turning to `CCC1Cc2cc(OCCCOC)c(OC)cc2-c2cc(=O)c(C(=O)NCc3ccccc3)cn21` (stereo not drawn) [Example 15, N-benzyl-6-ethyl-10-methoxy-9-(3-methoxypropoxy)-2-oxo-6,7-dihydrobenzo[a]quinolizine-3-carboxamide], the midpoint of inhibition, the IC50, lay at 26.7 µM. The IC50 values of the last two compounds are within 1.5-fold of each other.

`CCC1Cc2cc(OCCCOC)c(OC)cc2-c2cc(=O)c(CN3CCCC3)cn21` (stereo not drawn) [Example 25, 6-ethyl-10-methoxy-9-(3-methoxypropoxy)-3-(pyrrolidin-1-ylmethyl)-6,7-dihydrobenzo[a]quinolizin-2-one] had an IC50 of 16.4 µM.

The compound `CCC1Cc2cc(OCCCOC)c(OC)cc2-c2cc(=O)c(C(=O)N3CCOC(C(=O)O)C3)cn21` (stereo not drawn) [Example 13, 4-[6-ethyl-10-methoxy-9-(3-methoxypropoxy)-2-oxo-6,7-dihydrobenzo[a]quinolizine-3-carbonyl]morpholine-2-carboxylic Acid] yielded an IC50 of 36.6 µM.

`CCC1Cc2cc(OCCCOC)c(OC)cc2-c2cc(=O)c(CN3CCCC3C(=O)O)cn21` (stereo not drawn) [Example 23, 1-[[6-ethyl-10-methoxy-9-(3-methoxypropoxy)-2-oxo-6,7-dihydrobenzo[a]quinolizin-3-yl]methyl]pyrrolidine-2-carboxylic Acid] returned an IC50 of 17.3 µM.

The compound `CCC1Cc2cc(OCCCOC)c(OC)cc2-c2cc(=O)c(COC)cn21` (stereo not drawn) [Example 29, 6-ethyl-10-methoxy-3-(methoxymethyl)-9-(3-methoxypropoxy)-6,7-dihydrobenzo[a]quinolizin-2-one] returned an IC50 of 1.5 µM.

For the compound `COCCCOc1cc2c(cc1Cl)-c1cc(=O)c(C(=O)Nc3nnn[nH]3)cn1C(C(C)C)C2` (stereo not drawn) [Example 37, 10-chloro-6-isopropyl-9-(3-methoxypropoxy)-2-oxo-N-(1H-tetrazol-5-yl)-6,7-dihydrobenzo[a]quinolizine-3-carboxamide], the IC50 turned out to be 5.9 µM.

`COc1cc2c(cc1OC)-c1cc(=O)c(C(=O)Nc3nnn[nH]3)cn1C(CC(F)(F)F)C2` (stereo not drawn) [Example 35, 9,10-dimethoxy-2-oxo-N-(1H-tetrazol-5-yl)-6-(2,2,2-trifluoroethyl)-6,7-dihydrobenzo[a]quinolizine-3-carboxamide] displayed an IC50 of 12.9 µM.

For the compound `CCOc1cc2c(cc1OC)-c1cc(=O)c(C(=O)NC(C)COC)cn1C(CC)C2` (stereo not drawn) [Example 17, 9-ethoxy-6-ethyl-10-methoxy-N-(2-methoxy-1-methyl-ethyl)-2-oxo-6,7-dihydrobenzo[a]quinolizine-3-carboxamide], half-maximal inhibition (IC50) was put at 2.2 µM.

Consider `CCC1Cc2cc(OCCCOC)c(OC)cc2-c2cc(=O)c(C(=O)NC(C)COC)cn21` (stereo not drawn) [Example 16, 6-ethyl-10-methoxy-N-(2-methoxy-1-methyl-ethyl)-9-(3-methoxypropoxy)-2-oxo-6,7-dihydrobenzo[a]quinolizine-3-carboxamide], for which the IC50 came out at 18.4 µM.

`CCCNC(=O)c1cn2c(cc1=O)-c1cc(OC)c(OCc3ccccc3)cc1CC2CC` (stereo not drawn) [Example 5, 9-benzyloxy-6-ethyl-10-methoxy-2-oxo-N-propyl-6,7-dihydrobenzo[a]quinolizine-3-carboxamide] yielded an IC50 of 5.6 µM.

`CCC1Cc2cc(OCCCOC)c(OC)cc2-c2cc(=O)c(CO)cn21` (stereo not drawn) [Example 20, 6-ethyl-3-(hydroxymethyl)-10-methoxy-9-(3-methoxy-propoxy)-6,7-dihydrobenzo[a]quinolizin-2-one] returned an IC50 of 22.3 µM.

Take `CC[C@@H]1Cc2cc(OC)c(OC)cc2-c2cc(=O)c(C(=O)Nc3nnn[nH]3)cn21` [Example 31, (6R)-6-ethyl-9,10-dimethoxy-2-oxo-N-(1H-tetrazol-5-yl)-6,7-dihydrobenzo[a]quinolizine-3-carboxamide]: half-maximal inhibition (IC50) was put at 44.1 µM. Compared with the last compound, the IC50 is about 2-fold higher.

As to `CCC1Cc2cc(OCCCOC)c(OC)cc2-c2cc(=O)c(CN3CCCCC3)cn21` (stereo not drawn) [Example 24, 6-ethyl-10-methoxy-9-(3-methoxypropoxy)-3-(1-piperidylmethyl)-6,7-dihydrobenzo[a]quinolizin-2-one], 12.6 µM corresponded to half-maximal inhibition (IC50).

In the case of `CCC1Cc2cc(OCCCOC)c(OC)cc2-c2cc(=O)c(CN3CCCCC3C(=O)O)cn21` (stereo not drawn) [Example 22, 1-[[6-ethyl-10-methoxy-9-(3-methoxypropoxy)-2-oxo-6,7-dihydrobenzo[a]quinolizin-3-yl]methyl]piperidine-2-carboxylic Acid], the IC50 was 43.2 µM.

As for `CCC(C)NC(=O)c1cn2c(cc1=O)-c1cc(OC)c(OCc3ccccc3)cc1CC2CC` (stereo not drawn) [Example 9, 9-benzyloxy-6-ethyl-10-methoxy-2-oxo-N-sec-butyl-6,7-dihydrobenzo[a]quinolizine-3-carboxamide], the IC50 was found to be 5.4 µM. Compared with the last compound, the IC50 is about 8-fold lower.

For the compound `CCC1Cc2cc(OCc3ccccc3)c(OC)cc2-c2cc(=O)c(C(=O)NCc3ccccc3)cn21` (stereo not drawn) [Example 1, N-benzyl-9-benzyloxy-6-ethyl-10-methoxy-2-oxo-6,7-dihydrobenzo[a]quinolizine-3-carboxamide], the midpoint of inhibition, the IC50, lay at 26.2 µM.

For `CCC1Cc2cc(OCCCOC)c(OC)cc2-c2cc(=O)c(CN(C)CC(=O)O)cn21` (stereo not drawn) [Example 30, 2-[[6-ethyl-10-methoxy-9-(3-methoxypropoxy)-2-oxo-6,7-dihydrobenzo[a]quinolizin-3-yl]methyl-methyl-amino]acetic Acid], the IC50 was found to be 16.9 µM.

Compound `CCC1Cc2cc(OCC(C)C)c(OC)cc2-c2cc(=O)c(C(=O)NC(C)COC)cn21` (stereo not drawn) [Example 18, 6-ethyl-9-isobutoxy-10-methoxy-N-(2-methoxy-1-methyl-ethyl)-2-oxo-6,7-dihydrobenzo[a]quinolizine-3-carboxamide] gave an IC50 of 4.9 µM. Against the preceding compound, the IC50 is about 3.4-fold lower.

Regarding `COCCCOc1cc2c(cc1OC)-c1cc(=O)c(C(=O)Nc3nnn[nH]3)cn1C(C1CCC1)C2` (stereo not drawn) [Example 33, 6-cyclobutyl-10-methoxy-9-(3-methoxypropoxy)-2-oxo-N-(1H-tetrazol-5-yl)-6,7-dihydrobenzo[a]quinolizine-3-carboxamide], the IC50 amounted to 1 µM.

The compound `CCC1Cc2cc(OCCCOC)c(OC)cc2-c2cc(=O)c(CN3CCOCC3)cn21` (stereo not drawn) [Example 26, 6-ethyl-10-methoxy-9-(3-methoxypropoxy)-3-(morpholinomethyl)-6,7-dihydrobenzo[a]quinolizin-2-one] registered an IC50 of 16.2 µM.
